Assay results: patent US20100292233A1, “DIHYDRO-1H-PYRROLO[1,2-A]INDOL-1-YL CARBOXYLIC ACID DERIVATIVES WHICH ACT AS S1P1 AGONISTS” (ARENA PHARMACEUTICALS, INC., priority 2008, published 2010)
“Also recorded” adds a separate entry of the source.

How the values were obtained:
[1] = target: T1, S1P1 receptor (Homo sapiens, UniProt P21453); test: HTRF assay for direct cAMP measurement (S1P1 receptor agonism); format: cell-based; details: recombinant CHO-K1 cells stably transfected with S1P1 receptor; decrease of cAMP
T1 construct: expressed in transfected cells; host or cells: CHO-K1 (ATCC CCL-61)
Excerpt: Compounds were screened for S1P1 receptor agonism (e.g., human S1P1 receptor) using the HTRF® assay for direct cAMP measurement (Gabriel et al, ASSAY and Drug Development Technologies, 1:291-303, 2003) and recombinant CHO-K1 cells stably transfected with S1P1 receptor. CHO-K1 cells were obtained from ATCC® (Manassas, Va.; Catalog #CCL-61). An agonist of the S1P1 receptor was detected in the HTRF® assay for direct cAMP measurement as a compound which decreased cAMP concentration. The HTRF® assay also was used to determine EC50 values for S1P1 receptor agonists.
Principle of the assay: The HTRF® assay kit was purchased from Cisbio-US, Inc. (Bedford, Mass.; Catalog #62AM4PEC). The HTRF® assay supported by the kit is a competitive immunoassay between endogenous cAMP produced by the CHO-K1 cells and tracer cAMP labeled with the dye d2. The tracer binding is visualized by a monoclonal anti-cAMP antibody labeled with Cryptate. The specific signal (i.e., fluorescence resonance energy transfer, FRET) is inversely proportional to the concentration of unlabeled cAMP in the standard or sample.
Standard curve: The fluorescence ratio (665 nm/620 nm) of the standards (0.17 to 712 nM cAMP) included in the assay was calculated and used to generate a cAMP standard curve according to the kit manufacturer's instructions. The fluorescence ratio of the samples (test compound or compound buffer) was calculated and used to deduce respective cAMP concentrations by reference to the cAMP standard curve.
Setup of the assay: The HTRF® assay was carried out using a two-step protocol essentially according to the kit manufacturer's instructions, in 20 μl total volume per well, 384-well plate format (ProxiPlates; PerkinElmer, Fremont, Calif.; catalog #6008280). To each of the experimental wells was transferred 1500 recombinant CHO-K1 cells in 5 μl phosphate buffered saline containing calcium chloride and magnesium chloride (“PBS+”; Invitrogen, Carlsbad, Calif.; catalog #14040) supplemented with IBMX (250 μM) and rolipram (20 μM) (phosphodiesterase inhibitors; Sigma-Aldrich, St. Louis, Mo.; catalog #I5879 and catalog #R6520, respectively), followed by test compound in 5 μl compound buffer (PBS+ supplemented with […] NKH477 (water-soluble forskolin derivative; SignaGen Laboratories, Gaithersburg, Md.; catalog #PKI-NKH477-010)) or 5 μl compound buffer. The plate was then incubated at room temperature for 1 hour. To each well was then added 5 μl cAMP-d2 conjugate in lysis buffer and 5 μl Cryptate conjugate in lysis buffer according to the kit manufacturer's instructions. The plate was then further incubated at room temperature for 1 hour, after which the assay plate was read.
Assay readout: HTRF® readout was accomplished using a PHERAstar (BMG LABTECH Inc., Durham, N.C.) or EnVision™ (PerkinElmer, Fremont, Calif.) microplate reader.

[2] = test system: C57BL/6 mice; details: prophylactic oral administration, 1 mg/kg, three times a week; cited from earlier work
[3] = test system: mice; details: oral administration to mice; cited from earlier work
[4] = test system: patients with multiple sclerosis; details: Phase II, relapsing-remitting multiple sclerosis; cited from earlier work
[5] = attributed to agonism of the S1P3 receptor; cited from earlier work
[6] = short-term high dose; cited from earlier work
[7] = target: T2, S1P3 receptor (Homo sapiens, UniProt Q99500); test: Cellular/functional Ca2+ assay for agonist activity on S1P3 receptor; format: cell-based; details: human neuroblastoma cells; FIG. 1; done by Caliper LifeSciences
T2 construct: a human neuroblastoma cell line which endogenously expresses S1P3 (predominantly), S1P2 and S1P5 receptors
Description: Of these, S1P3 and S1P2 receptors respond to agonists, such as S1P, with an intracellular calcium increase. […] Such an assay can be performed commercially, e.g. by Caliper LifeSciences (Hopkinton, Mass.).
Assay: Compound 2 (Enantiomer 1) was assayed for agonist activity on S1P3 receptor by Caliper LifeSciences. Human neuroblastoma cells were washed and resuspended in physiological buffer. The cells were then loaded with dye that measures intracellular calcium. S1P was used as a reference agonist. Compound 2 (Enantiomer 1) was included in the assay as a test compound. After addition of […] or Compound 2 (Enantiomer 1), fluorescence was measured at 485 nm excitation/525 nm emission every 2 sec for at least 60 sec. Calcium ionophore A23187 was then added as an internal positive control.

[8] = test system: BALB/c mice; test: Mouse peripheral lymphocyte lowering (PLL) assay; format: in vivo; details: 1 mg/kg i.v., 5 hours post dose, FIG. 2
Description: Animals: Male BALB/c mice (6 to 7 weeks of age at start of study) (Charles River Laboratories, Wilmington, Mass.) were housed four per cage and maintained in a humidity—(40-60%) and temperature—(68-72° F.) controlled facility on a 12 hr:12 hr light/dark cycle (lights on at 6:30 am) with free access to food (Harlan Teklad, Orange, Calif., Rodent Diet 8604) and water. Mice were allowed one week of habituation to the animal facility before testing.
PLL Assay: Mice were administered via i.v. one of the following: vehicle (100% PEG400) or 1 mg/kg Compound 1 in vehicle, in a total volume of 5 mL/kg. Peripheral blood samples were collected at 5 hours post dose. The mice were anesthetized with isoflurane and bled retro-orbitally (300 μL) into 1.5 ml EDTA tubes. A complete […] (CBC) (including lymphocyte count) was obtained using CELL-DYN® 3700 (Abbott Laboratories, Abbott Park, Ill.). Results are presented in FIG. 2, in which the peripheral blood lymphocyte (PBL) count is shown for the 5 hour group.

T1 sequence (P21453 whole entry): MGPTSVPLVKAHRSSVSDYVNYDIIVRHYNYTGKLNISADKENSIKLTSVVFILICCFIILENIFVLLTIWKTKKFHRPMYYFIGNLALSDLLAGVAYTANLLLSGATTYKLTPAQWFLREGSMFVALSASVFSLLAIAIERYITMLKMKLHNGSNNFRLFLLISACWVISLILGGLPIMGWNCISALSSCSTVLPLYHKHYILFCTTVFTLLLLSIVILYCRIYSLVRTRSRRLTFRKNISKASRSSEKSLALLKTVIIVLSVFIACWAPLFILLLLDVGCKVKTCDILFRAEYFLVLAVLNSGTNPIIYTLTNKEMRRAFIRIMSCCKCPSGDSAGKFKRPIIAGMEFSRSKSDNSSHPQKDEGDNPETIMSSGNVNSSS
T2 sequence (Q99500 whole entry): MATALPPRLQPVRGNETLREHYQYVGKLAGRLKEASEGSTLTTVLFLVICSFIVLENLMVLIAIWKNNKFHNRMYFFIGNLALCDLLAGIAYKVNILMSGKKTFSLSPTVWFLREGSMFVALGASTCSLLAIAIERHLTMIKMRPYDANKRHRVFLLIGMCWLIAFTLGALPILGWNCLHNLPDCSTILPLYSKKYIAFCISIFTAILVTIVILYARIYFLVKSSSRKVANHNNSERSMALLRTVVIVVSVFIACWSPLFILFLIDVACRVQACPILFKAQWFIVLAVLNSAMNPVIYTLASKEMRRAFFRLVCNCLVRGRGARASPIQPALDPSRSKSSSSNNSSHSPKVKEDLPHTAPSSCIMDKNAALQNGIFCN

**Q.** With `O=C(O)CC1CCn2c1cc1cc(-c3noc(-c4cc(Br)cc(OC(F)(F)F)c4)n3)ccc12` (stereo not shown) [Compound 18, 2-(7-(5-(3-Bromo-5-(trifluoromethoxy)phenyl)-1,2,4-oxadiazol-3-yl)-2,3-dihydro-1H-pyrrolo[1,2-a]indol-1-yl)acetic Acid] as the compound, how does the EC50 [1] read?
**A.** Its EC50 is 13 nM.

**Q.** Which EC50 [1] does the source give for `O=C(O)CC1CCn2c1cc1cc(-c3noc(-c4ccc5c(c4)OC(F)(F)O5)n3)ccc12` (stereo not shown) [Compound 8, 2-(7-(5-(2,2-Difluorobenzo[d][1,3]dioxol-5-yl)-1,2,4-oxadiazol-3-yl)-2,3-dihydro-1H-pyrrolo[1,2-a]indol-1-yl)acetic Acid] here?
**A.** Its EC50 is 41 nM.

**Q.** What does the source list for `CCCCCCCCc1ccc(CCC(N)(CO)CO)cc1` [FTY720]?
**A.** development of EAMG [2]: completely prevented the development of experimental autoimmune myasthenia gravis (EAMG); VEGF-induced vascular permeability [3]: potently blocked VEGF-induced vascular permeability; MRI lesions and clinical disease activity [4]: reduce the number of lesions detected by magnetic resonance imaging (MRI) and clinical disease activity; adverse event in clinical trials [5]: transient asymptomatic bradycardia; ocular infiltrates [6]: rapidly reduced ocular infiltrates

**Q.** With `CNc1ccc2oc(C[C@H]3O[C@@]4(CC[C@H]3C)O[C@H]([C@H](C)C(=O)c3ccc[nH]3)[C@H](C)C[C@H]4C)nc2c1C(=O)O` [Compound A23187, reference compound] as the compound, how does the “agonist activity on S1P3 receptor (intracellular calcium)” value [7] read?
**A.** The value was “pronounced agonist activity”.

**Q.** With `N#Cc1cc(OC(F)(F)F)cc(-c2nc(-c3ccc4c(c3)cc3n4CCC3CC(=O)O)no2)c1` (racemic) [Compound 2, 2-(7-(5-(3-Cyano-5-(trifluoromethoxy)phenyl)-1,2,4-oxadiazol-3-yl)-2,3-dihydro-1H-pyrrolo[1,2-a]indol-1-yl)acetic Acid] as the compound, how does the EC50 [1] read?
**A.** Its EC50 is 10 nM.

**Q.** For `N#Cc1cc(OC(F)(F)F)cc(-c2nc(-c3ccc4c(c3)cc3n4CCC3CC(=O)O)no2)c1` (single isomer, unassigned) [Compound 2 (Enantiomer 1), 2-(7-(5-(3-Cyano-5-(trifluoromethoxy)phenyl)-1,2,4-oxadiazol-3-yl)-2,3-dihydro-1H-pyrrolo[1,2-a]indol-1-yl)acetic Acid], which “agonist activity on S1P3 receptor (intracellular calcium)” value [7] is on record?
**A.** Its value is “substantially little to no activity; also recorded: no or substantially no agonist activity”.

**Q.** Which EC50 [1] does the source give for `N#Cc1cc(-c2nc(-c3ccc4c(c3)cc3n4CCC3CC(=O)O)no2)ccc1OCC(F)(F)F` (stereo not shown) [Compound 15, 2-(7-(5-(3-Cyano-4-(2,2,2-trifluoroethoxy)phenyl)-1,2,4-oxadiazol-3-yl)-2,3-dihydro-1H-pyrrolo[1,2-a]indol-1-yl)acetic Acid] here?
**A.** Its EC50 is 6.3 nM.

**Q.** Which results are given for `O=C(O)CC1CCn2c1cc1cc(-c3noc(-c4cc(C(F)(F)F)cc(C(F)(F)F)c4)n3)ccc12` (stereo not shown) [Compound 1, 2-(7-(5-(3,5-Bis(trifluoromethyl)phenyl)-1,2,4-oxadiazol-3-yl)-2,3-dihydro-1H-pyrrolo[1,2-a]indol-1-yl)acetic Acid]?
**A.** EC50 [1]: 7.2 nM; peripheral lymphocyte lowering (peripheral blood lymphocyte count vs vehicle) [8]: exhibited activity for inducing peripheral lymphocyte lowering
